Literature values, collected in US20240350583A1, “COMPOSITION FOR PREVENTING OR TREATING FIBROTIC DISEASES, COMPRISING HAPLN1” (Chung Ang University Industry Academic Cooperation …, priority 2021, published 2024).

Test system: bleomycin-induced pulmonary fibrosis
Settings: group treated with prednisolone (Oku et al.); cited from earlier work

## C[C@]12C=CC(=O)C=C1CC[C@@H]1[C@@H]2[C@@H](O)C[C@@]2(C)[C@H]1CC[C@]2(O)C(=O)CO [prednisolone]
  level of TGFβ1, a measure of anti-fibrotic efficacy: no decrease
  levels of inflammation-related biomarkers: decreased
